Laboratory results: patent US12281149B2, “Modulators of G-protein coupled receptors” (priority 2021, dated 2025)
*1 amine or outer side, *2 acyl side, *3 side chain or, on linkers, in order; H or OH if unused. Where a SMILES comes first, the peptide text is derived from it. Side-chain parts run from the residue outwards. [ ]: non-standard residue; d: D form. The star is where a group is joined. C20 diacid = O=C(O)CCCCCCCCCCCCCCCCCCC(=O)*; αMePhe(2-F) = C[C@](N)(Cc1ccccc1F)C(=O)O; γGlu = O=C(O)[C@H](CCC(=O)[*:2])N[*:1]; AEEA = NCCOCCOCC(=O)O; Aib = CC(C)(N)C(=O)O; CO = O=C([*:1])[*:2]; X12 = Fc1cccc(N*)c1; GABA = NCCCC(=O)O; βAla = NCCC(=O)O; NHPr = CCCN*

How the values were obtained:
Format in all cases: cell-based
GIP receptor [1] = biological target: T1, GIP receptor (Homo sapiens, UniProt P48546); assay: HitHunter cAMP assay, GIP receptor; settings: for EC50: CHO cells stably expressing GIP receptor, cAMP accumulation, 30 min, read-out: EC50 GIP-1R; for Emax: CHO cells, cAMP, normalized to maximum signal from GIP (high) and DMSO (low), read-out: Emax GIP-1R
T1 sequence (P48546 22-466): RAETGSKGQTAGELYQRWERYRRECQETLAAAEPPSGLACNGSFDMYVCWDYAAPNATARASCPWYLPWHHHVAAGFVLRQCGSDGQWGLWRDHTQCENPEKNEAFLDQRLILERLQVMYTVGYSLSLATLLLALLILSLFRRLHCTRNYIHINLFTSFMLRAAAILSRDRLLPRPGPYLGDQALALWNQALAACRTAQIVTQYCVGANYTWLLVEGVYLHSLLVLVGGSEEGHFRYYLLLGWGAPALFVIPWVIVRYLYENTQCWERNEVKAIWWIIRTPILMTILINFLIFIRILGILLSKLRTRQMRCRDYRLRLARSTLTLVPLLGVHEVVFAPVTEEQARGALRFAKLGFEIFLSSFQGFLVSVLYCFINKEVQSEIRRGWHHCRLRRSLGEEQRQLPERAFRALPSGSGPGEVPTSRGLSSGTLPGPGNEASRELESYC

GLP-1 receptor [2] = biological target: T2, GLP-1 receptor (Homo sapiens, UniProt P43220); assay: PathHunter β-arrestin assay, GLP-1 receptor; parameters: host or cells: PathHunter CHO-K1 GLP1R β-Arrestin Cell Line; settings: β-arrestin-2 recruitment, PathHunter CHO-K1 GLP1R β-Arrestin Cell Line, 90 min at 37° C.; normalized to GLP-1; read-out: GLP-1R β Arrestin EC50
GIP receptor [3] = biological target: T1, GIP receptor; assay: PathHunter β-arrestin assay, GIP receptor; parameters: host or cells: PathHunter CHO-K1 GIPR β-Arrestin Cell Line; settings: β-arrestin-2 recruitment, PathHunter CHO-K1 GIPR β-Arrestin Cell Line, 90 min at 37° C.; normalized to GIP; read-out: GIPR β Arrestin EC50
GLP-1 receptor [4] = biological target: T2, GLP-1 receptor; assay: HitHunter cAMP assay, GLP-1 receptor; settings: for EC50: CHO cells stably expressing human GLP-1 receptor, cAMP accumulation, 30 min, read-out: EC50 GLP-1R; for Emax: CHO cells, cAMP, normalized to maximum signal from GLP-1 (high) and DMSO (low), read-out: Emax GLP-1R

T2 sequence (P43220 24-463): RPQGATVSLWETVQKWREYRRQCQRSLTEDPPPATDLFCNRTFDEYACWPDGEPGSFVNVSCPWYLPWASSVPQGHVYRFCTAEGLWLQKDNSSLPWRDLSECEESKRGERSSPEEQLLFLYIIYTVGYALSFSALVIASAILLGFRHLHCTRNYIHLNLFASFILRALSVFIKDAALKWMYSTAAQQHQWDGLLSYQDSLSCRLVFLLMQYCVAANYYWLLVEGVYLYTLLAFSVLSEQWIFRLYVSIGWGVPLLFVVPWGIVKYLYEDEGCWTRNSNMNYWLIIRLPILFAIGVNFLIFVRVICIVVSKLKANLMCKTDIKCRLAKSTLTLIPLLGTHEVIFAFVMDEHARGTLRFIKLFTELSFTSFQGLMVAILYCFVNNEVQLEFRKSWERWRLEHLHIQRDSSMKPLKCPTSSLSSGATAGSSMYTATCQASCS

Row | SMILES | EC50 (GIP receptor [1]) [nM] | Emax (GIP receptor [1]) [%] | EC50 (GLP-1 receptor [2]) [nM] | EC50 (GIP receptor [3]) [nM] | EC50 (GLP-1 receptor [4]) [nM] | Emax (GLP-1 receptor [4]) [%]
1 | CCCNC(=O)NC(C)(C)C(=O)NCCC(=O)N[C@@H](CCC(=O)O)C(=O)NCC(=O)N[C@H](C(=O)N[C@@H](Cc1ccccc1)C(=O)N[C@H](C(=O)N[C@@H](CO)C(=O)N[C@@H](CC(=O)O)C(=O)N[C@@H](Cc1ccc(O)cc1)C(=O)N[C@@H](CO)C(=O)N[C@H](C(=O)NC(C)(C)C(=O)N[C@@H](CC(C)C)C(=O)N[C@@H](CC(=O)O)C(=O)N[C@@H](CCCCN)C(=O)N[C@H](C(=O)N[C@@H](C)C(=O)N[C@@H](CCC(N)=O)C(=O)N[C@@H](CCCCNC(=O)COCCOCCNC(=O)COCCOCCNC(=O)CC[C@H](NC(=O)CCCCCCCCCCCCCCCCCCC(=O)O)C(=O)O)C(=O)N[C@@H](C)C(=O)N[C@@H](Cc1ccccc1)C(=O)N[C@H](C(=O)N[C@@H](CCC(N)=O)C(=O)N[C@@H](Cc1c[nH]c2ccccc12)C(=O)N[C@@H](CC(C)C)C(=O)N[C@H](C(=O)N[C@@H](C)C(=O)NCC(=O)NCC(=O)N1CCC[C@H]1C(=O)N[C@@H](CO)C(=O)N[C@@H](CO)C(=O)NCC(=O)N[C@@H](C)C(=O)N1CCC[C@H]1C(=O)N1CCC[C@H]1C(=O)N1CCC[C@H]1C(=O)N[C@@H](CO)C(N)=O)[C@@H](C)CC)C(C)C)[C@@H](C)CC)[C@@H](C)CC)[C@@H](C)O)[C@@H](C)O [Compound 281] ({NHPr-CO}-[Aib][βAla]EGTFTSDYSI[Aib]LDKIAQK([AEEA-AEEA-γGlu-C20 diacid])AFVQWLIAGGPSSGAPPPS-NH2) | 1 to 10 | 108 | > 1000 | > 1000 | 0.1 to 1 | 95
2 | CC[C@H](C)[C@H](NC(=O)[C@H](CC(C)C)NC(=O)[C@H](Cc1c[nH]c2ccccc12)NC(=O)[C@H](CCC(N)=O)NC(=O)[C@@H](NC(=O)[C@H](Cc1ccccc1)NC(=O)[C@H](C)NC(=O)[C@H](CCCCNC(=O)COCCOCCNC(=O)COCCOCCNC(=O)CC[C@H](NC(=O)CCCCCCCCCCCCCCCCCCC(=O)O)C(=O)O)NC(=O)[C@H](CCC(N)=O)NC(=O)[C@H](C)NC(=O)[C@@H](NC(=O)[C@H](CCCCN)NC(=O)[C@H](CC(=O)O)NC(=O)[C@H](CC(C)C)NC(=O)C(C)(C)NC(=O)[C@@H](NC(=O)[C@H](CO)NC(=O)[C@H](Cc1ccc(O)cc1)NC(=O)[C@H](CC(=O)O)NC(=O)[C@H](CO)NC(=O)[C@@H](NC(=O)[C@](C)(Cc1ccccc1F)NC(=O)[C@@H](NC(=O)CNC(=O)[C@H](CCC(=O)O)NC(=O)CCCNC(=O)Nc1cccc(F)c1)[C@@H](C)O)[C@@H](C)O)[C@@H](C)CC)[C@@H](C)CC)C(C)C)C(=O)N[C@@H](C)C(=O)NCC(=O)NCC(=O)N1CCC[C@H]1C(=O)N[C@@H](CO)C(=O)N[C@@H](CO)C(=O)NCC(=O)N[C@@H](C)C(=O)N1CCC[C@H]1C(=O)N1CCC[C@H]1C(=O)N1CCC[C@H]1C(=O)N[C@@H](CO)C(N)=O [Compound 282] ({X12-CO-GABA}-EGT[αMePhe(2-F)]TSDYSI[Aib]LDKIAQK([AEEA-AEEA-γGlu-C20 diacid])AFVQWLIAGGPSSGAPPPS-NH2) | 10 to 100 | 90 | > 1000 | > 1000 | 0.1 to 1 | 92
